# Source: paper doi:10.1101/2021.09.30.462449v1 (biorxiv, 2021)
# What was measured:
# Test in all cases: biochemical
# Details in all cases: read-out: % inhibition mean (Z'Lyte)
# ABL2 (Arg) = ABL2 (Arg) (Homo sapiens, UniProt P42684)
# AKT2 (PKB beta) = AKT2 (PKB beta) (Homo sapiens, UniProt P31751)
# AKT3 (PKB gamma) = AKT3 (PKB gamma) (Homo sapiens, UniProt Q9Y243)
# AURKB (Aurora B) = AURKB (Aurora B) (Homo sapiens, UniProt Q96GD4)
# CAMK2A (CaMKII alpha) = CAMK2A (CaMKII alpha) (Homo sapiens, UniProt Q9UQM7)
# CDC42 BPB (MRCKB) = CDC42 BPB (MRCKB) (Homo sapiens, UniProt Q9Y5S2)
# CSNK2A1 (CK2 alpha 1) = CSNK2A1 (CK2 alpha 1) (Homo sapiens, UniProt P68400)
# DCAMKL1 (DCLK1) = DCAMKL1 (DCLK1) (Homo sapiens, UniProt O15075)
# DCAMKL1 (DCLK1), sequence (O15075 whole entry): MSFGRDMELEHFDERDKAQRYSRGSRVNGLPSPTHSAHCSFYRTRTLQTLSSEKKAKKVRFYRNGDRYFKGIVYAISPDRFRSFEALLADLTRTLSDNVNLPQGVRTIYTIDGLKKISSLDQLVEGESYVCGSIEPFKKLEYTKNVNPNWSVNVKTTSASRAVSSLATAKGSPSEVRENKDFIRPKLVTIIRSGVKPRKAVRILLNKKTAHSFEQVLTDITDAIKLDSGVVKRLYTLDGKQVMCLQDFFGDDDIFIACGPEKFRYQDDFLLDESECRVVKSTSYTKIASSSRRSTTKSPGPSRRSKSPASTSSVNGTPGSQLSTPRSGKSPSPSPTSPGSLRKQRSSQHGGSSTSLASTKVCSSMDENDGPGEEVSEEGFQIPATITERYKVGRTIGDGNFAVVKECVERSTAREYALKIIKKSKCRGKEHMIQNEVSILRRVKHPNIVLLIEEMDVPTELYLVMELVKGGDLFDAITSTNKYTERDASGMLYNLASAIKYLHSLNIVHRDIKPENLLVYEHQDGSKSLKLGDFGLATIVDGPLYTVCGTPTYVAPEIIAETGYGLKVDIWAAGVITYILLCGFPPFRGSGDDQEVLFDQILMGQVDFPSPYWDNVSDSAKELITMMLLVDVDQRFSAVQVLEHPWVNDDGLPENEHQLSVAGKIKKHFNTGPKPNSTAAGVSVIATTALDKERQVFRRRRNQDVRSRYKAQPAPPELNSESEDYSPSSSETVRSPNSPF
# EGFR (ErbB1) L861Q = EGFR (ErbB1) L861Q (Homo sapiens, UniProt P00533, L861Q)
# EPHB4 = EPHB4 (Homo sapiens, UniProt P54760)
# EPHB4, sequence (P54760 whole entry): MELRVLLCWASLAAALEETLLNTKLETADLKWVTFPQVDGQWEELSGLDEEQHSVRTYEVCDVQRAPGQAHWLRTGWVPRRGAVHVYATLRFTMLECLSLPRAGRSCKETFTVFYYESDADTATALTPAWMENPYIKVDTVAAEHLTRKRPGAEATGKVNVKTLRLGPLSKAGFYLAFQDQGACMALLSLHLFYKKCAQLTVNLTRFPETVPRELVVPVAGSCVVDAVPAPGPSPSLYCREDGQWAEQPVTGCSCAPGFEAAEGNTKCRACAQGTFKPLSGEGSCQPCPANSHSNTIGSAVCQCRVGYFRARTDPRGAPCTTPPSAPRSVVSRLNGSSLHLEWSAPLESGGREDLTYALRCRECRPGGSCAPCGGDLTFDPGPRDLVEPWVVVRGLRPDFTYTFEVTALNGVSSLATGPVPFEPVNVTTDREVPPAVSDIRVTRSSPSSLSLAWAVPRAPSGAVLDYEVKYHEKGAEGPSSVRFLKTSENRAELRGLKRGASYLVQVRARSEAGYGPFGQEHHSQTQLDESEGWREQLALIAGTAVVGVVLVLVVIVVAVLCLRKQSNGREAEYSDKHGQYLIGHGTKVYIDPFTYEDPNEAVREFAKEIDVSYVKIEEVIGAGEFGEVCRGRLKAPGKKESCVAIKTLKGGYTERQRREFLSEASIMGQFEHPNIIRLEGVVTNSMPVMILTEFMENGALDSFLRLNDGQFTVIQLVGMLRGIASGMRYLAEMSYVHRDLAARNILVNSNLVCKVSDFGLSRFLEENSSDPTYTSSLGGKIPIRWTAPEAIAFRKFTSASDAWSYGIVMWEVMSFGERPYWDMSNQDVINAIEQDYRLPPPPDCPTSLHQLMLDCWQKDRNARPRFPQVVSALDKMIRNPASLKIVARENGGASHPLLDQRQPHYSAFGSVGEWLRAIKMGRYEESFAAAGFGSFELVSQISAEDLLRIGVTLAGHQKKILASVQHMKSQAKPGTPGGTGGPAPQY
# FGFR4 = FGFR4 (Homo sapiens, UniProt P22455)
# FGFR4, sequence (P22455 whole entry): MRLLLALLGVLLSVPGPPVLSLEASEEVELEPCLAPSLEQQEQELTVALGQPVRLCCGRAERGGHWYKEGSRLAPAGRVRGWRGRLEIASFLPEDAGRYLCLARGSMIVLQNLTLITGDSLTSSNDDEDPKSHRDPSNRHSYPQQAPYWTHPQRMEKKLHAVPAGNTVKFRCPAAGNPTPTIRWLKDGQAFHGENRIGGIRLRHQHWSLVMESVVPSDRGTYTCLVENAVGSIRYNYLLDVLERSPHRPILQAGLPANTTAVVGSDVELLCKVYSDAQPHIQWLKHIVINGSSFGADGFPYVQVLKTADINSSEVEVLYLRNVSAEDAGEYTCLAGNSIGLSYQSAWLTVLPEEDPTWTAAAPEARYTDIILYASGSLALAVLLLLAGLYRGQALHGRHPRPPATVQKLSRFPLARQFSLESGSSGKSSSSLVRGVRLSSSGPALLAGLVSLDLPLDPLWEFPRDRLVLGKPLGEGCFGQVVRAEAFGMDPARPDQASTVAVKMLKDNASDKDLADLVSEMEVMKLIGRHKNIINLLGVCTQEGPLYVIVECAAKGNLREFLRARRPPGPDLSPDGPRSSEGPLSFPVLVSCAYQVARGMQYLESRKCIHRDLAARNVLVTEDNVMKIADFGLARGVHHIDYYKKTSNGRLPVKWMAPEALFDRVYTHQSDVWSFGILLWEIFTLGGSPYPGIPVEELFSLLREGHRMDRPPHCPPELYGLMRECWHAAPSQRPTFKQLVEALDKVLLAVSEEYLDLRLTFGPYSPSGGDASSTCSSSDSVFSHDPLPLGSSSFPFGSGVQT
# FLT4 (VEGFR3) = FLT4 (VEGFR3) (Homo sapiens, UniProt P35916)
# MAP3K19 (YSK4) = MAP3K19 (YSK4) (Homo sapiens, UniProt Q56UN5)
# MAPK14 (p38 alpha) = MAPK14 (p38 alpha) (Homo sapiens, UniProt Q16539)
# MAPKAPK2 = MAPKAPK2 (Homo sapiens, UniProt P49137)
# MERTK (cMER) = MERTK (cMER) (Homo sapiens, UniProt Q12866)
# MUSK = MUSK (Homo sapiens, UniProt O15146)
# MUSK, sequence (O15146 whole entry): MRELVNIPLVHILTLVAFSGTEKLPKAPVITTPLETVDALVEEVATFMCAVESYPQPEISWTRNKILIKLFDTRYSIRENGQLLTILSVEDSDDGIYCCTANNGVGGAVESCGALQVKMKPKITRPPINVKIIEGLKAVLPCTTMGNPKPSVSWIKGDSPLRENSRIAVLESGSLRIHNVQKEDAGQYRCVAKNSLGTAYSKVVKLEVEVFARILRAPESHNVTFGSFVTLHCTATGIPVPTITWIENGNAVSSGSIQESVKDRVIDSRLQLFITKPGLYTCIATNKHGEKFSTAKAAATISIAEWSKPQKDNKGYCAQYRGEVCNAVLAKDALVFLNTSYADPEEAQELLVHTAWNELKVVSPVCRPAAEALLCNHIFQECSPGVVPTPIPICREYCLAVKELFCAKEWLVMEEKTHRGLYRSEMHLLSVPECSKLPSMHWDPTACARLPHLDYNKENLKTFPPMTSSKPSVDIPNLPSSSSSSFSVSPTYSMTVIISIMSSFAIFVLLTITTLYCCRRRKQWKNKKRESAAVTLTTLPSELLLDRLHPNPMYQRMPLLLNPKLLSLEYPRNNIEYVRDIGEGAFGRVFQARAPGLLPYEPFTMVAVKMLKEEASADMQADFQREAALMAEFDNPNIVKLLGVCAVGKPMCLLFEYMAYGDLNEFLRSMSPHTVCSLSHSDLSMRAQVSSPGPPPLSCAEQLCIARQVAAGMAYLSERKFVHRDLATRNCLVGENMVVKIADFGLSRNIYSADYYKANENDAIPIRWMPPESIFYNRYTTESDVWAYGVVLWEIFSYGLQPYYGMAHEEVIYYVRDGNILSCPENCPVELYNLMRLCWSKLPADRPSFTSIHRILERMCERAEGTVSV
# NEK4 = NEK4 (Homo sapiens, UniProt P51957)
# NEK9 = NEK9 (Homo sapiens, UniProt Q8TD19)
# PDGFRB (PDGFR beta) = PDGFRB (PDGFR beta) (Homo sapiens, UniProt P09619)
# PEAK1 = PEAK1 (Homo sapiens, UniProt Q9H792)
# PIM1 = PIM1 (Homo sapiens, UniProt P11309)
# PKN1 (PRK1) = PKN1 (PRK1) (Homo sapiens, UniProt Q16512)
# PRKCB2 (PKC beta II) = PRKCB2 (PKC beta II) (Homo sapiens, UniProt P05771)
# PRKCB2 (PKC beta II), sequence (P05771 whole entry): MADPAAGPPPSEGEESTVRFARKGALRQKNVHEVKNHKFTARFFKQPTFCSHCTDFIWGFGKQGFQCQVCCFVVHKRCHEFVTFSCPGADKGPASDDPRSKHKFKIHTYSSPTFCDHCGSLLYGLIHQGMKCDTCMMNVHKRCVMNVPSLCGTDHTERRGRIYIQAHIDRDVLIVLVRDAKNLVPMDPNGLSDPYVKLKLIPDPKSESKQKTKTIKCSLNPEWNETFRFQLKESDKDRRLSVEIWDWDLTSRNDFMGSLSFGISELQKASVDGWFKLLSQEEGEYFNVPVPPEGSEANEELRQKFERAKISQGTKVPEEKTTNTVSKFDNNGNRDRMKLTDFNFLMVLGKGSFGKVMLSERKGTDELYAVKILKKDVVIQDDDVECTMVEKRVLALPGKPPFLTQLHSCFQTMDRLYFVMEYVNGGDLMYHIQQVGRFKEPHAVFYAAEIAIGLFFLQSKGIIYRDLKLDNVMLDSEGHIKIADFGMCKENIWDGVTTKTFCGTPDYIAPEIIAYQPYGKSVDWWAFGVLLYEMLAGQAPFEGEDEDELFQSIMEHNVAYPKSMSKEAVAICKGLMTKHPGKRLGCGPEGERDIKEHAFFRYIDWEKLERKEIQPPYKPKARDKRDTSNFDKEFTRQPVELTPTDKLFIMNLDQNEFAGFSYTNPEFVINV
# SNF1LK2 = SNF1LK2 (Homo sapiens, UniProt Q9H0K1)
# SNF1LK2, sequence (Q9H0K1 whole entry): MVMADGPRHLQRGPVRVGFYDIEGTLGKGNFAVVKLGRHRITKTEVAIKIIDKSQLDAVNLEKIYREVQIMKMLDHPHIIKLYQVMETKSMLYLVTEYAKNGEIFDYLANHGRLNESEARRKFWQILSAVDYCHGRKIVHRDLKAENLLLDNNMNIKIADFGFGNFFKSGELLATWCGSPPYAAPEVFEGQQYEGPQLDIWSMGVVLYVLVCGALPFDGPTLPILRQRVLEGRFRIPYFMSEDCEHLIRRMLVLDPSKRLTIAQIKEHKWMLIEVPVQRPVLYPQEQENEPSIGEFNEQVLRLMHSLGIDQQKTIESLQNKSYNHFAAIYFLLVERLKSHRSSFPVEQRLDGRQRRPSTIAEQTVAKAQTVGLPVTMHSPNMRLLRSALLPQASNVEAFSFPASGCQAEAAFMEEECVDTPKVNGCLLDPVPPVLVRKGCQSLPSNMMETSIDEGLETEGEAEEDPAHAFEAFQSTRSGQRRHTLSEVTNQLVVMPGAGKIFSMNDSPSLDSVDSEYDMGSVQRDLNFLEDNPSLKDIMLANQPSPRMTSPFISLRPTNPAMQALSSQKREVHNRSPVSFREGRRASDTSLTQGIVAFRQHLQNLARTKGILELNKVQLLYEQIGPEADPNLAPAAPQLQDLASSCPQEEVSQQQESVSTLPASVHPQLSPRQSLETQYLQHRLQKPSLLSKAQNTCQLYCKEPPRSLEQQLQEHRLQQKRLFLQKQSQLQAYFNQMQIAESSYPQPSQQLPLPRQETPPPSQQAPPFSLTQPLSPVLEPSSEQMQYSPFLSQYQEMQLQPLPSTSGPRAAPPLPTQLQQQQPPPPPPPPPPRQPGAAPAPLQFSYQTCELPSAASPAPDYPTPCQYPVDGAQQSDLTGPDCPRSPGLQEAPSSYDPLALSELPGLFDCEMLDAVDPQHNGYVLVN
# STK23 (MSSK1) = STK23 (MSSK1) (Homo sapiens, UniProt Q9UPE1)
# TEK (TIE2) Y897S = TEK (TIE2) Y897S (Homo sapiens, UniProt Q02763, Y897S)
# TNK1 = TNK1 (Homo sapiens, UniProt Q13470)
smiles,measurement,setting,value
"COc1ccc2nc3cc(Cl)ccc3c(Nc3cc(CN4CCCC4)c(O)c(CN4CCCC4)c3)c2n1 [Pyronaridine, 4-[(7-Chloro-2-methoxybenzo[b][1,5]naphthyridin-10-yl)amino]-2,6-bis(1-pyrrolidinylmethyl)phenol phosphate (1:4)]",inhibition at 1 µM,ABL2 (Arg),2%
same,inhibition at 1 µM,AKT2 (PKB beta),1%
same,inhibition at 1 µM,AKT3 (PKB gamma),7%
same,inhibition at 1 µM,AURKB (Aurora B),5%
same,inhibition at 1 µM,CAMK2A (CaMKII alpha),4%
same,inhibition at 1 µM,CDC42 BPB (MRCKB),-3%
same,inhibition at 1 µM,CSNK2A1 (CK2 alpha 1),7%
same,inhibition at 1 µM,DCAMKL1 (DCLK1),0%
same,inhibition at 1 µM,EGFR (ErbB1) L861Q,-4%
same,inhibition at 1 µM,EPHB4,7%
same,inhibition at 1 µM,FGFR4,-14%
same,inhibition at 1 µM,FLT4 (VEGFR3),3%
same,inhibition at 1 µM,MAP3K19 (YSK4),3%
same,inhibition at 1 µM,MAPK14 (p38 alpha),1%
same,inhibition at 1 µM,MAPKAPK2,10%
same,inhibition at 1 µM,MERTK (cMER),2%
same,inhibition at 1 µM,MUSK,-10%
same,inhibition at 1 µM,NEK4,4%
same,inhibition at 1 µM,NEK9,0%
same,inhibition at 1 µM,PDGFRB (PDGFR beta),0%
same,inhibition at 1 µM,PEAK1,1%
same,inhibition at 1 µM,PIM1,8%
same,inhibition at 1 µM,PKN1 (PRK1),1%
same,inhibition at 1 µM,PRKCB2 (PKC beta II),15%
same,inhibition at 1 µM,SNF1LK2,-5%
same,inhibition at 1 µM,STK23 (MSSK1),-2%
same,inhibition at 1 µM,TEK (TIE2) Y897S,2%
same,inhibition at 1 µM,TNK1,-3%
